From patent US8808715B1, “Methods and compositions for modulating keratinocyte function” (Georgia Regents Research Institute, Inc, priority 2004, dated 2014)

Key:
[1] = test system: slowly dividing keratinocytes; test: Assay of DNA synthesis ([3H]thymidine incorporation) in slowly proliferating keratinocytes; type: cell-based, mouse; conditions: liposomes, 24 hours; for effect on DNA synthesis ([3H]thymidine incorporation into DNA): keratinocytes with reduced proliferation; for lowest concentration at which stimulation of DNA synthesis was observed / stimulation of DNA synthesis compared with egg-derived PG: FIG. 20B
Method: Confluent keratinocytes were treated for 24 hours with the indicated concentrations of phosphatidylglycerol (PG), prepared via bath sonication of PG in serum-free keratinocyte medium. [^3H]Thymidine incorporation into DNA was then determined as above. [^3H]Thymidine incorporation into DNA under control conditions was 12,880±1,040 cpm/well. Values represent the means±SEM of 3 separate experiments performed in duplicate; *p<0.01, **p<0.001 versus the control value.
(§1) Keratinocytes were prepared from ICR CD-I outbred mice in accordance with a protocol approved by the Institutional Animal Care and Use Committee. Briefly, the skins were harvested and incubated overnight in 0.25% trypsin at 4° C. The epidermis and dermis were separated and basal keratinocytes scraped from the underside of the epidermis. The cells were collected by centrifugation and incubated overnight in an atmosphere of 95% air/5% carbon dioxide at 37° C. in plating medium as described in Dodd M E, Ristich V L, Ray S, Lober R M, Bollag W B (2005) Regulation of protein kinase D during differentiation and proliferation of primary mouse keratinocytes. J Invest Dermatol 125:294-306, incorporated herein by reference. The plating medium was replaced with serum-free keratinocyte medium (SFKM) also as in Dodd, et al., and the cells were refed every 1-2 days with fresh medium until use.
(§2) [^3H]Thymidine incorporation into DNA was determined as a measure of DNA synthesis as previously described by Griner, et al., above. Near-confluent keratinocyte cultures were incubated for 24 hours in SFKM containing the indicated additions. PG was added in the form of liposomes prepared by bath sonication of dried PG in SFKM to make a stock solution of 2 mg/mL. [^3H]Thymidine at a final concentration of 1 μCi/mL was then added to the cells for an additional 1-hour incubation. Reactions were terminated by washing with PBS- and macromolecules precipitated with ice-cold 5% trichloroacetic acid. Cells were solubilized in 0.3 M NaOH and the radioactivity incorporated into DNA quantified by liquid scintillation spectroscopy.
(§3) [^3H]Thymidine incorporation was used as a measure of DNA synthesis and was performed as described in Example 2. Liposomes containing PG and functional derivatives thereof were prepared by bath sonication as described in Example 2, with the exception that different concentrations of material were employed.

[2] = test system: rapidly dividing keratinocytes; test: Assay of DNA synthesis ([3H]thymidine incorporation) in rapidly dividing keratinocytes; type: cell-based; conditions: for effect on DNA synthesis ([3H]thymidine incorporation into DNA): control (25 μM Ca2+) medium; for concentration at which DNA synthesis was inhibited / inhibition of DNA synthesis, percent of control (in words): FIG. 21B; for concentration at which DNA synthesis was inhibited: lowest tested 25 μg/mL, highest tested 100 μg/mL; for concentration of maximal inhibition of DNA synthesis / inhibition of DNA synthesis compared with egg-derived PG / lowest concentration at which inhibition of DNA synthesis was observed: liposomes; for inhibition of DNA synthesis compared with egg-derived PG / lowest concentration at which inhibition of DNA synthesis was observed: FIG. 20A; for inhibition of DNA synthesis, percent of control (in words): PG versus PP headgroup species
Method: as §1, §2, §3

CCCCCC(=O)OCC(COP(=O)(O)OCC(O)CO)OC(=O)CCCCC (stereo not drawn) [DHPG, dihexanoyl-PG]
effect on DNA synthesis ([3H]thymidine incorporation into DNA) [1]: only mildly stimulatory

CCCCC/C=C\C/C=C\CCCCCCCC(=O)OC[C@H](COP(=O)(O)OCC(O)CO)OC(=O)CCCCCCC/C=C\C/C=C\CCCCC (stereo partly drawn) [DLPG, dilinoleoyl-PG]
effect on DNA synthesis ([3H]thymidine incorporation into DNA) ([2]; 24 hours): inhibit DNA synthesis in a dose dependent manner
concentration at which DNA synthesis was inhibited [2]: ≤ 25 µg/mL
concentration of maximal inhibition of DNA synthesis ([2]; 24 hours): 100 µg/mL
inhibition of DNA synthesis compared with egg-derived PG ([2]; 24 hours): at least as strongly as egg-derived PG
lowest concentration at which inhibition of DNA synthesis was observed ([2]; 24 hours): 6.25 µg/mL

CCCCC/C=C\C/C=C\CCCCCCCC(=O)OC[C@H](COP(=O)(O)OCCC)OC(=O)CCCCCCC/C=C\C/C=C\CCCCC [DLPP, dilinoleoyl-PP]
inhibition of DNA synthesis, percent of control (in words) ([2]; 24 hours): not statistically significant
concentration at which DNA synthesis was inhibited [2]: 100 µg/mL

CCCCCCCC/C=C\CCCCCCCC(=O)OC[C@H](COP(=O)(O)OCC(O)CO)OC(=O)CCCCCCC/C=C\CCCCCCCC (stereo partly drawn) [DOPG, dioleoyl-PG]
effect on DNA synthesis ([3H]thymidine incorporation into DNA) ([2]; 24 hours): no inhibition of DNA synthesis
concentration of maximal stimulation of DNA synthesis [1]: 100 µg/mL
lowest concentration at which stimulation of DNA synthesis was observed [1]: 12.5 µg/mL
stimulation of DNA synthesis compared with egg-derived PG [1]: more potently than egg-derived PG
effect on DNA synthesis ([3H]thymidine incorporation into DNA) [1]: potent stimulator of DNA synthesis

CCCCCCCC/C=C\CCCCCCCC(=O)OC[C@H](COP(=O)(O)OCCC)OC(=O)CCCCCCC/C=C\CCCCCCCC [DOPP, dioleoyl-phosphatidylpropanol]
effect on DNA synthesis ([3H]thymidine incorporation into DNA) ([2]; 24 hours): no impact on DNA synthesis
inhibition of DNA synthesis, percent of control (in words) ([2]; 24 hours): lack of effect

CCCCCCCCCCCCCCCC(=O)OCC(COP(=O)(O)OCC(O)CO)OC(=O)CCCCCCCCCCCCCCC (stereo not drawn) [DPPG, dipalmitoyl-PG]
lowest concentration at which stimulation of DNA synthesis was observed [1]: 50 µg/mL
stimulation of DNA synthesis compared with egg-derived PG [1]: approximately the same level as egg-derived PG

CCCCCCCCCCCCCCCC(=O)OC[C@H](COP(=O)(O)OCCC)OC(=O)CCCCCCCCCCCCCCC [DPPP, dipalmitoyl-PP]
effect on DNA synthesis ([3H]thymidine incorporation into DNA) ([2]; 24 hours): did not affect DNA synthesis
inhibition of DNA synthesis, percent of control (in words) ([2]; 24 hours): lack of effect

CCCCC/C=C\C/C=C\C/C=C\C/C=C\CCCC(=O)O[C@H](COC(=O)CCCCCCCCCCCCCCC)COP(=O)(O)OCC(O)CO (stereo partly drawn) [PAPG, palmitoyl-arachidonoyl-PG]
effect on DNA synthesis ([3H]thymidine incorporation into DNA) ([2]; 24 hours): inhibit DNA synthesis in a dose dependent manner
concentration of maximal inhibition of DNA synthesis ([2]; 24 hours): 100 µg/mL
inhibition of DNA synthesis compared with egg-derived PG ([2]; 24 hours): at least as strongly as egg-derived PG
lowest concentration at which inhibition of DNA synthesis was observed ([2]; 24 hours): 12.5 µg/mL
effect on DNA synthesis ([3H]thymidine incorporation into DNA) [1]: only mildly stimulatory

CCCCCCCC/C=C\CCCCCCCC(=O)O[C@H](COC(=O)CCCCCCCCCCCCCCC)COP(=O)(O)OCC(O)CO (stereo partly drawn) [POPG, palmitoyl-oleoyl-PG]
effect on DNA synthesis ([3H]thymidine incorporation into DNA) ([2]; 24 hours): moderate inhibition of DNA synthesis
lowest concentration at which inhibition of DNA synthesis was observed ([2]; 24 hours): 100 µg/mL
effect on DNA synthesis ([3H]thymidine incorporation into DNA) [1]: only mildly stimulatory

OC[C@@H](O)[C@@H](O)[C@H](O)[C@@H](O)CO [sorbitol]
effect on DNA synthesis in presence of 125 μM Ca2+ ([2]; 24 hours, 125 μM Ca2+ medium): no significant effect
effect on DNA synthesis ([3H]thymidine incorporation into DNA) ([2]; 24 hours): no significant effect

palmitoyl-linoleoyl-PG [PLPG]
effect on DNA synthesis ([3H]thymidine incorporation into DNA) ([2]; 24 hours): inhibit DNA synthesis in a dose dependent manner
concentration of maximal inhibition of DNA synthesis ([2]; 24 hours): 100 µg/mL
inhibition of DNA synthesis compared with egg-derived PG ([2]; 24 hours): at least as strongly as egg-derived PG
lowest concentration at which inhibition of DNA synthesis was observed ([2]; 24 hours): 50 µg/mL
